target: T1, Syk (Homo sapiens, UniProt P43405); assay: Syk HTRF assay; assay type: biochemical; conditions: IC50 activity level, read-out: Activity Level
T1 construct: purchased Carna Biosciences
Outline: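 Read-out is the 665 nm/615 nm time-resolved fluorescence ratio after EDTA stop and Eu-anti-phosphotyrosine plus streptavidin-DyLight 647 detection. Reaction ran 1 h at room temperature with start mix of 87.5 μM ATP and 80 nM substrate peptide in pH 7.6 HEPES/MgCl2 buffer.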

| IC50 [nM] | Structure (SMILES) |
| --- | --- |
| 500 to 1000 | c1ccc(Nc2nc3cccc(-c4ccc5[nH]ncc5c4)n3n2)cc1 [Example 522, 5-(1H-indazol-5-yl)-N-phenyl-[1,2,4]triazolo[1,5-a]pyridin-2-amine] |
| 0.005 to 250 | Nc1n[nH]c2cc(Nc3nc4cccc(N[C@H]5CCCNC5)n4n3)ccc12 [Example 451, (S)-N^2-(3-amino-1H-indazol-6-yl)-N^5-(piperidin-3-yl)-[1,2,4]triazolo[1,5-a]pyridine-2,5-diamine] |
| 0.005 to 250 | c1cc(NC2CCCNC2)n2nc(Nc3ccc(N4CCOCC4)nc3)nc2c1 (stereo in doubt) [Example 411, (S)-N^2-(6-morpholinopyridin-3-yl)-N^5-(piperidin-3-yl)-[1,2,4]triazolo[1,5-a]pyridine-2,5-diamine] |
| 0.005 to 250 | CC(C)(C)OC(=O)N1C(=O)C(C)(C)c2ccc(Nc3nc4cccc(N[C@H]5CC[C@@H](O)CC5)n4n3)cc21 [Example 545, cis-tert-butyl 6-(5-(4-hydroxycyclohexylamino)-[1,2,4]triazolo[1,5-a]pyridin-2-ylamino)-3,3-dimethyl-2-oxoindoline-1-carboxylate] |
| 0.005 to 250 | Cn1c(=O)[nH]c2cc(Nc3nc4cccc(N[C@H]5CC[C@@H](O)CC5)n4n3)ccc21 [Example 570, cis-5-(5-(4-hydroxycyclohexylamino)-[1,2,4]triazolo[1,5-a]pyridin-2-ylamino)-1-methyl-1H-benzo[d]imidazol-2(3H)-one] |
| 0.005 to 250 | Cc1n[nH]c2cc(Nc3nc4cccc(CC(C)CO)n4n3)ccc12 (stereo in doubt) [Example 555, (S)-2-methyl-3-(2-(3-methyl-1H-indazol-6-ylamino)-[1,2,4]triazolo[1,5-a]pyridin-5-yl)propan-1-ol] |
| 1000 to 10000 | c1ccc(Nc2nc3cccc(C4CCNCC4)n3n2)cc1 [Example 512, N-phenyl-5-(piperidin-4-yl)-[1,2,4]triazolo[1,5-a]pyridin-2-amine] |
| 1000 to 10000 | c1ccc(Nc2nc3cccc(-c4cccnc4)n3n2)cc1 [Example 524, N-phenyl-5-(pyridin-3-yl)-[1,2,4]triazolo[1,5-a]pyridin-2-amine] |
| 0.005 to 250 | c1cc(N[C@@H]2CCCNC2)n2nc(Nc3ccc4cn[nH]c4c3)nc2c1 [Example 467, (R)-N^2-(1H-indazol-6-yl)-N^5-(piperidin-3-yl)-[1,2,4]triazolo[1,5-a]pyridin-2,5-diamine] |
| 1000 to 10000 | c1ccc(Nc2nc3cccc(-c4ccccn4)n3n2)cc1 [Example 488, N-phenyl-5-(pyridin-2-yl)-[1,2,4]triazolo[1,5-a]pyridin-2-amine] |
| 0.005 to 250 | OCc1nc2ccc(-c3cccc4nc(Nc5ccc(C(F)(F)F)cc5)nn34)cc2[nH]1 [Example 409, (6-(2-(4-(trifluoromethyl)phenylamino)-[1,2,4]triazolo[1,5-a]pyridin-5-yl)-1H-benzo[d]imidazol-2-yl)methanol] |

same assay, conditions: activity levels A-D, read-out: Activity Level (IC50 in the Syk HTRF assay)

| IC50 [nM] | Structure (SMILES) |
| --- | --- |
| 1000 to 10000 | OCC1CCCN1Cc1cccc2nc(Nc3ccc(C(F)(F)F)cc3)nn12 (stereo in doubt) [Example 272, (R)-(1-((2-(4-(trifluoromethyl)phenylamino)-[1,2,4]triazolo[1,5-a]pyridin-5-yl)methyl)pyrrolidin-2-yl)methanol] |
| 1000 to 10000 | FC(F)(F)c1ccc(Nc2nc3cccc(Cc4ccncc4)n3n2)cc1 [Example 372, 5-(pyridin-4-ylmethyl)-N-(4-(trifluoromethyl)phenyl)-[1,2,4]triazolo[1,5-a]pyridin-2-amine] |
| 1000 to 10000 | FC(F)(F)c1ccc(Nc2nc3cccc(O[C@H]4CCCNC4)n3n2)cc1 [Example 362, (S)-5-(piperidin-3-yloxy)-N-(4-(trifluoromethyl)phenyl)-[1,2,4]triazolo[1,5-a]pyridin-2-amine] |
| 0.005 to 250 | Cc1cc(C)cc(Nc2nc3cccc(N[C@H]4CC[C@@H](O)CC4)n3n2)c1 [Example 314, cis-4-(2-(3,5-dimethylphenylamino)-[1,2,4]triazolo[1,5-a]pyridin-5-ylamino0)cyclohexaol] |
| 500 to 1000 | COc1cncc(Nc2nc3cccc(N[C@H]4CC[C@@H](O)CC4)n3n2)c1 [Example 368, cis-4-(2-(5-methoxypyridin-3-ylamino)-[1,2,4]triazolo[1,5-a]pyridin-5-ylamino)cyclohexanol] |
| 0.005 to 250 | CC(C)n1ncc2ccc(Nc3nc4cccc(N[C@H]5CC[C@@H](O)CC5)n4n3)cc21 [Example 243, cis-4-(2-(1-isopropyl-1H-indazol-6-ylamino)-[1,2,4]triazolo[1,5-a]pyridin-5-ylamino)cyclohexanol] |
| 1000 to 10000 | OC[C@H]1CCN(Cc2cccc3nc(Nc4ccc(C(F)(F)F)cc4)nn23)C1 [Example 324, (S)-(1-((2-(4-(trifluoromethyl)phenylamino)-[1,2,4]triazolo[1,5-a]pyridin-5-yl)methyl)pyrrolidin-3-yl)methanol] |
| 0.005 to 250 | O=C1CN(Cc2cccc3nc(Nc4ccc(C(F)(F)F)cc4)nn23)CC(=O)N1 [Example 264, 4-((2-(4-(trifluoromethyl)phenylamino)-[1,2,4]triazolo[1,5-a]pyridin-5-yl)methyl)piperazine-2,6-dione] |
| 1000 to 10000 | CNC(=O)c1ccc(Nc2nc3cccc(CC4CCC(O)C4)n3n2)cc1 (single isomer, unassigned; diastereomer 1) [Example 232, 4-(5-((3-hydroxycyclopentyl)methyl)-[1,2,4]triazolo[1,5-a]pyridin-2-ylamino)-N-methylbenzamide (diastereomer 1)] |
| 250 to 500 | O[C@H]1CC[C@@H](Nc2cccc3nc(Nc4ccc(F)c(F)c4)nn23)CC1 [Example 311, cis-4-(2-(3,4-difluorophenylamino)-[1,2,4]triazolo[1,5-a]pyridin-5-ylamino)cyclohexanol] |
| 1000 to 10000 | O=C1NCC[C@H]1NCc1cccc2nc(Nc3ccc(C(F)(F)F)cc3)nn12 [Example 205, (R)-3-((2-(4-(trifluoromethyl)phenylamino)-[1,2,4]triazolo[1,5-a]pyridin-5-yl)methylamino)pyrrolidin-2-one] |
| 1000 to 10000 | NC(=O)c1cc(Nc2nc3cccc(N[C@H]4CC[C@@H](O)CC4)n3n2)ccc1F [Example 318, cis-2-fluoro-5-(5-(4-hydroxycyclohexylamino)-[1,2,4]triazolo[1,5-a]pyridin-2-ylamino)benzamide] |

same assay, conditions: read-out: Activity Level (Syk HTRF assay IC50)

| IC50 [nM] | Structure (SMILES) |
| --- | --- |
| 1000 to 10000 | COc1ccc(Nc2nc3cccc(-c4ccccc4)n3n2)cn1 [compound 71, N-(6-methoxypyridin-3-yl)-5-phenyl-[1,2,4]triazolo[1,5-a]pyridin-2-amine] |
| 500 to 1000 | NC(=O)c1cccc(Nc2nc3cccc(-c4ccccc4)n3n2)c1 [compound 67, 3-(5-phenyl-[1,2,4]triazolo[1,5-a]pyridin-2-ylamino)benzamide] |
| 0.005 to 250 | CN(CCO)c1cccc2nc(Nc3ccc4c(c3)NC(=O)C4(C)C)nn12 [Example 153, 6-(5-((2-hydroxyethyl)(methyl)amino)-[1,2,4]triazolo[1,5-a]pyridin-2-ylamino)-3,3-dimethylindolin-2-one] |
| 0.005 to 250 | O=C1c2ccc(Nc3nc4cccc(N[C@H]5CC[C@@H](O)CC5)n4n3)cc2CN1CCO [Example 198, cis-5-(5-(4-hydroxycyclohexylamino)-[1,2,4]triazolo[1,5-a]pyridin-2-ylamino)-2-(2-hydroxyethyl)isoindolin-1-one] |
| 0.005 to 250 | Cc1n[nH]c2cc(Nc3nc4cccc(N(C)C5CCOCC5)n4n3)ccc12 [Example 189, N^5-methyl-N^2-(3-methyl-1H-indazol-6-yl)-N^5-(tetrahydro-2H-pyran-4-yl)-[1,2,4]triazolo[1,5-a]pyridin-2,5-diamine] |
| 1000 to 10000 | NC(=O)c1ccc(Nc2nc3cccc(-c4ccccc4)n3n2)cc1F [compound 73, 2-fluoro-4-(5-phenyl-[1,2,4]triazolo[1,5-a]pyridin-2-ylamino)benzamide] |
| 0.005 to 250 | Cc1cc(Nc2nc3cccc(NC4CCOCC4)n3n2)cc2c1C(C)(C)C(=O)N2 [compound 125, 3,3,4-trimethyl-6-(5-(tetrahydro-2H-pyran-4-ylamino)-[1,2,4]triazolo[1,5-a]pyridin-2-ylamino)indolin-2-one] |
| 0.005 to 250 | Cc1n[nH]c2cc(Nc3nc4cccc(NC[C@@H]5CC[C@H](O)C5)n4n3)ccc12 [Example 178, (1S,3R)-3-((2-(3-methyl-1H-indazol-6-ylamino)-[1,2,4]triazolo[1,5-a]pyridin-5-ylamino)methyl)cyclopentanol] |
| 250 to 500 | O=C1Cc2ccc(Nc3nc4cccc(N[C@H]5CC[C@@H](O)CC5)n4n3)cc2N1CCO [Example 185, cis-6-(5-(4-hydroxycyclohexylamino)-[1,2,4]triazolo[1,5-a]pyridin-2-ylamino)-1-(2-hydroxyethyl)indolin-2-one] |
| 1000 to 10000 | Oc1ccc(Nc2nc3cccc(-c4ccccc4)n3n2)cn1 [compound 70, 5-(5-phenyl-[1,2,4]triazolo[1,5-a]pyridin-2-ylamino)pyridine-2-ol] |
| 0.005 to 250 | Oc1ccc2cc(Nc3nc4cccc(-c5ccccc5)n4n3)ccc2n1 [compound 26, 6-(5-phenyl-[1,2,4]triazolo[1,5-a]pyridin-2-ylamino)quinolin-2-ol] |
| 0.005 to 250 | Cc1cc(Nc2nc3cccc(CC4CCOCC4)n3n2)cc2c1cnn2C [Example 147, N-(1,4-dimethyl-1H-indazol-6-yl)-5-((tetrahydro-2H-pyran-4-yl)methyl)-[1,2,4]triazolo[1,5-a]pyridin-2-amine] |
| 0.005 to 250 | CC(=O)N1CCc2cc(Nc3nc4cccc(-c5ccccc5)n4n3)ccc21 [compound 60, 1-(5-(5-phenyl-[1,2,4]triazolo[1,5-a]pyridin-2-ylamino)indolin-1-yl)ethanone] |
| 0.005 to 250 | CNC(=O)c1ccc(Nc2nc3cccc(-c4cc(Cl)cc(CCCN)c4)n3n2)cc1 [compound 6, 4-(5-(3-(3-aminopropyl)-5-chlorophenyl)-[1,2,4]triazolo-[1,5-a]pyridin-2-ylamino)-N-methylbenzamide] |
